Biological target: T1, JAK1 (Homo sapiens, UniProt P23458)
T1 construct: purchased Thermo Fisher Scientific
Test: Z'-LYTE JAK1 kinase screen (Thermo Fisher Scientific)
Format: biochemical
Conditions: 1% DMSO, ATP at Km apparent; for % Inhibition 1000 nm: test compound 1000 nm (so in the source)
Description: The example compounds were screened for Jak1 activity at Thermo Fisher Scientific, using their Z′-Lyte™ protocol, as described below. Selectivity screening against other kinases can be performed following similar procedures. Z′-LYTE Assay Conditions: The Test Compounds are screened in 1% DMSO (final) in the well. Three screening concentrations (10, 100, and 1000 nM) of test compounds were used. Peptide/Kinase Mixtures: All Peptide/Kinase Mixtures are diluted to a 2× working concentration in the appropriate Kinase Buffer (For JAK1, the 2×JAK1/Tyr 06 mixture is prepared in 50 mM HEPES pH 6.5, 0.01% BRIJ-35, 10 mM MgCl2, 1 mM EGTA, 0.02% NaN3. The final 10 μL Kinase Reaction consists of 21.2-91.5 ng JAK1 and 2 μM Tyr 06 in 50 mM HEPES pH 7.0, 0.01% BRIJ-35, 10 mM MgCl2, 1 mM EGTA, 0.01% NaN3. After the 1 hour Kinase Reaction incubation, 5 μL of a 1:128 dilution of Development Reagent A is added). ATP Solution: All ATP Solutions are diluted to a 4× working concentration in Kinase Buffer (50 mM HEPES pH 7.5, 0.01% BRIJ-35, 10 mM MgCl2, 1 mM EGTA). ATP: Km apparent is previously determined using a Z′-LYTE assay. 10× Novel PKC Lipid Mix: 2 mg/ml Phosphatidyl Serine, 0.2 mg/ml DAG in 20 mM HEPES, pH 7.4, 0.3% CHAPS. For 5 mL 10× Novel PKC Lipid Mix: • 1. Add 10 mgs Phosphatidyl Serine (Avanti Polar Lipids Part #8400032C or 840039C) and 1 mg DAG (Avanti Polar Lipids Part #800811C) to a glass tube. • 2. Remove the chloroform from lipid mixture by evaporating to a clear, thin film under a stream of nitrogen. Continuous rotation of the tube, at an angle to ensure maximum surface area of the lipid solution, will promote the thinnest film. • 3. Add 5 mLs resuspension buffer, 20 mM HEPES, 0.3% CHAPS, pH 7.4, to the dried lipid mix • 4. Heat gently to 50-60° C. for 1-2 minutes and vortex in short intervals until the lipids are dissolved to a clear or slightly hazy solution. The lipids are typically in solution after 2-3 heat/vortex cycles. • 5. Cool to room temperature, aliquot into single use volumes and store at −20° C. Assay Protocol Bar-coded Corning, low volume NBS, black 384-well plate (Corning Cat. #4514) • 1. 100 nL—100× Test Compound in 100% DMSO • 2. 2.4 μL—Kinase buffer • 3. 5 μL—2× Peptide/Kinase Mixture • 4. 2.5 μL—4×ATP Solution • 5. 30-second plate shake • 6. 60-minute Kinase Reaction incubation at room temperature • 7. 5 μL—Development Reagent Solution • 8. 30-second plate shake • 9. 60-minute Development Reaction incubation at room temperature • 10. Read on fluorescence plate reader and analyze the data.

T1 sequence (P23458 whole entry): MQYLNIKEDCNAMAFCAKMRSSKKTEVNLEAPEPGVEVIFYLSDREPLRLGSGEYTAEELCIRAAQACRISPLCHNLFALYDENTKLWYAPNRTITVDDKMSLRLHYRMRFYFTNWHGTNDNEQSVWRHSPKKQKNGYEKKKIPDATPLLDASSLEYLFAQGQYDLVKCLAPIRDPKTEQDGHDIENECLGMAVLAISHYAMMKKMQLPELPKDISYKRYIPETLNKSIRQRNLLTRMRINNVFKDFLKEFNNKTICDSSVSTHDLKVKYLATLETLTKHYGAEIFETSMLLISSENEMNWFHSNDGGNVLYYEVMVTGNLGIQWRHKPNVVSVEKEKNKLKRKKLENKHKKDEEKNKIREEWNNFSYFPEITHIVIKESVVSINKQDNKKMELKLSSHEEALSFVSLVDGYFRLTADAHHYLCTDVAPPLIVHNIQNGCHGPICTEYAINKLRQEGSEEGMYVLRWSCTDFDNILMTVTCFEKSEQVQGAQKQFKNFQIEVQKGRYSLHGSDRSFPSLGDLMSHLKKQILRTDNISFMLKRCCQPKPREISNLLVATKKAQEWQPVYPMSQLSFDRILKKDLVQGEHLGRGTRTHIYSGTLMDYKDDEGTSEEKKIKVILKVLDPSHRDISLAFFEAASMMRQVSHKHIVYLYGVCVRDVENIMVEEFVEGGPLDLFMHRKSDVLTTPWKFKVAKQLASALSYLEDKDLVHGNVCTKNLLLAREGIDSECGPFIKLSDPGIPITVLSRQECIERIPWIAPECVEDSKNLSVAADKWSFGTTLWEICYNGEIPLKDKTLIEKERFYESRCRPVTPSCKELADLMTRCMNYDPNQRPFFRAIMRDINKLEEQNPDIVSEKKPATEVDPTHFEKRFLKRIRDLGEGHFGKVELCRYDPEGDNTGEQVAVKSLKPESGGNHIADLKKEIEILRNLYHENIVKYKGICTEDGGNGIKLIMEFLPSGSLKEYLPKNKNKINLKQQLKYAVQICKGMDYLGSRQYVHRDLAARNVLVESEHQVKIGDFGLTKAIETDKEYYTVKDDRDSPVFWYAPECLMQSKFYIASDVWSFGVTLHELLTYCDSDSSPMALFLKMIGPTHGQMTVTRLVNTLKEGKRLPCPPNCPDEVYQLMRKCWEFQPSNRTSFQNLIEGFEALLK

Row | inhibition at 0.01 µM (test compound 10 nM) [%] | inhibition at 0.1 µM (test compound 100 nM) [%] | % Inhibition 10 nM (test compound 10 nM, 0.01 µM) [%] | % Inhibition 100 nM (test compound 100 nM, 0.1 µM) [%] | % Inhibition 1000 nm [%] | Compound
1 | 76 | 96 | – | – | – | CN(c1ncnc2[nH]ccc12)C1CC2(CC(CNS(C)(=O)=O)C2)C1 (centres unmarked) [Compound 22, N-((6-(methyl(7H-pyrrolo[2,3-d]pyrimidin-4-yl)amino)spiro[3.3]heptan-2-yl)methyl)methanesulfonamide]
2 | – | – | 12 | 52 | 89 | CNS(=O)(=O)C1CC2(CC(N(C)c3ncnc4[nH]ccc34)C2)C1 (single isomer, unassigned; enantiomer b) [Compound 27, (Enantiomer B)-N-methyl-6-[methyl(7H-pyrrolo[2,3-d]pyrimidin-4-yl)amino]spiro[3.3]heptane-2-sulfonamide]
3 | 23 | 71 | – | – | 94 | CC(C)S(=O)(=O)NC1CC2(C1)CC(N(C)c1ncnc3[nH]ccc13)C2 (centres unmarked) [Compound 18, N-[2-[methyl(7H-pyrrolo[2,3-d]pyrimidin-4-yl)amino]spiro[3.3]heptan-6-yl]propane-2-sulfonamide]
4 | 38 | 83 | – | – | 95 | CCCS(=O)(=O)NC1CC2(C1)CC(N(C)c1ncnc3[nH]ccc13)C2 (centres unmarked) [Compound 17, N-[2-[methyl(7H-pyrrolo[2,3-d]pyrimidin-4-yl)amino]spiro[3.3]heptan-6-yl]propane-1-sulfonamide]
5 | 4 | 21 | – | – | 72 | CNS(=O)(=O)C1CC2(CC(N(C)c3ncnc4[nH]cnc34)C2)C1 (centres unmarked) [Compound 24, N-methyl-6-[methyl(9H-purin-6-yl)amino]spiro[3.3]heptane-2-sulfonamide]
6 | 33 | 82 | – | – | 97 | CN(c1ncnc2[nH]ccc12)C1CC2(CC(NS(=O)(=O)C3CCCC3)C2)C1 (centres unmarked) [Compound 20, N-[2-[methyl(7H-pyrrolo[2,3-d]pyrimidin-4-yl)amino]spiro[3.3]heptan-6-yl]cyclopentanesulfonamide]
7 | 13 | 60 | – | – | 94 | CN(c1ncnc2[nH]ccc12)C1CC2(C1)CC(S(N)(=O)=O)C2 (centres unmarked) [Compound 28, 6-[methyl(7H-pyrrolo[2,3-d]pyrimidin-4-yl)amino]spiro[3.3]heptane-2-sulfonamide]
8 | 46 | 85 | – | – | 98 | CN(c1ncnc2[nH]ccc12)C1CC2(CC(NS(=O)(=O)CCC(F)(F)F)C2)C1 (centres unmarked) [Compound 21, 3,3,3-trifluoro-N-[2-[methyl(7H-pyrrolo[2,3-d]pyrimidin-4-yl)amino]spiro[3.3]heptan-6-yl]propane-1-sulfonamide]
9 | 27 | 73 | – | – | 94 | CC(C)CS(=O)(=O)NC1CC2(C1)CC(N(C)c1ncnc3[nH]ccc13)C2 (centres unmarked) [Compound 19, 2-methyl-N-[2-[methyl(7H-pyrrolo[2,3-d]pyrimidin-4-yl)amino]spiro[3.3]heptan-6-yl]propane-1-sulfonamide]
10 | 2 | 4 | – | – | 19 | CNS(=O)(=O)C1CC2(CC(N(C)c3ncnc4[nH]ncc34)C2)C1 (centres unmarked) [Compound 25, N-methyl-6-[methyl(1H-pyrazolo[3,4-d]pyrimidin-4-yl)amino]spiro[3.3]heptane-2-sulfonamide]
11 | 31 | 78 | – | – | 95 | CN(c1ncnc2[nH]ccc12)C1CC2(CC(NS(C)(=O)=O)C2)C1 (centres unmarked) [Compound 15, N-[2-[methyl(7H-pyrrolo[2,3-d]pyrimidin-4-yl)amino]spiro[3.3]heptan-6-yl]methanesulfonamide]
12 | 43 | 89 | – | – | 99 | CN(c1ncnc2[nH]ccc12)C1CC2(C1)CC(S(=O)(=O)N1CCCC1)C2 (centres unmarked) [Compound 30, N-methyl-N-(2-pyrrolidin-1-ylsulfonylspiro[3.3]heptan-6-yl)-7H-pyrrolo[2,3-d]pyrimidin-4-amine]

More lines, now with the values behind:

Row | Compound | inhibition at 0.01 µM (test compound 10 nM) [%] | inhibition at 0.1 µM (test compound 100 nM) [%] | % Inhibition 10 nM (test compound 10 nM, 0.01 µM) [%] | % Inhibition 100 nM (test compound 100 nM, 0.1 µM) [%] | % Inhibition 1000 nm [%]
13 | CN(c1ncnc2[nH]ccc12)C1CC2(CC(NS(=O)(=O)c3ccc(C(F)(F)F)cc3)C2)C1 (centres unmarked) [Compound 14, N-[2-[methyl(7H-pyrrolo[2,3-d]pyrimidin-4-yl)amino]spiro[3.3]heptan-6-yl]-4-(trifluoromethyl)benzenesulfonamide] | 1 | 56 | – | – | 92
14 | CC(C)CNS(=O)(=O)C1CC2(CC(N(C)c3ncnc4[nH]ccc34)C2)C1 (centres unmarked) [Compound 7, N-isobutyl-6-[methyl(7H-pyrrolo[2,3-d]pyrimidin-4-yl)amino]spiro[3.3]heptane-2-sulfonamide] | 42 | 88 | – | – | 97
15 | CN(c1ncnc2[nH]ccc12)C1CC2(C1)CC(S(=O)(=O)NC1CC1)C2 (centres unmarked) [Compound 5, N-cyclopropyl-6-[methyl(7H-pyrrolo[2,3-d]pyrimidin-4-yl)amino]spiro[3.3]heptane-2-sulfonamide] | 61 | 94 | – | – | 99
16 | CN(c1ncnc2[nH]ccc12)C1CC2(C1)CC(S(=O)(=O)NC1CCC1)C2 (centres unmarked) [Compound 9, N-cyclobutyl-6-[methyl(7H-pyrrolo[2,3-d]pyrimidin-4-yl)amino]spiro[3.3]heptane-2-sulfonamide] | 64 | 93 | – | – | 99
17 | CN(c1ncnc2[nH]ccc12)C1CC2(CC(NS(=O)(=O)c3ccccc3Cl)C2)C1 (centres unmarked) [Compound 12, 2-chloro-N-[2-[methyl(7H-pyrrolo[2,3-d]pyrimidin-4-yl)amino]spiro[3.3]heptan-6-yl]benzenesulfonamide] | 15 | 60 | – | – | 90
18 | CN(c1ncnc2[nH]ccc12)C1CC2(C1)CC(S(=O)(=O)NCC(F)(F)F)C2 (centres unmarked) [Compound 6, 6-[methyl(7H-pyrrolo[2,3-d]pyrimidin-4-yl)amino]-N-(2,2,2-trifluoroethyl)spiro[3.3]heptane-2-sulfonamide] | 63 | 93 | – | – | 96
19 | CCCNS(=O)(=O)C1CC2(CC(N(C)c3ncnc4[nH]ccc34)C2)C1 (centres unmarked) [Compound 3, 6-[methyl(7H-pyrrolo[2,3-d]pyrimidin-4-yl)amino]-N-propyl-spiro[3.3]heptane-2-sulfonamide] | 57 | 92 | – | – | 98
20 | CN(c1ncnc2[nH]ccc12)C1CC2(C1)CC(S(=O)(=O)NC1CCCC1)C2 (centres unmarked) [Compound 10, N-cyclopentyl-6-[methyl(7H-pyrrolo[2,3-d]pyrimidin-4-yl)amino]spiro[3.3]heptane-2-sulfonamide] | 52 | 84 | – | – | 97
21 | CN(c1ncnc2[nH]ccc12)C1CC2(CC(NS(=O)(=O)c3ccc(Cl)cc3)C2)C1 (centres unmarked) [Compound 13, 4-chloro-N-[2-[methyl(7H-pyrrolo[2,3-d]pyrimidin-4-yl)amino]spiro[3.3]heptan-6-yl]benzenesulfonamide] | 27 | 77 | – | – | 95
22 | CN(c1ncnc2[nH]ccc12)C1CC2(CC(NS(=O)(=O)c3ccccc3)C2)C1 (centres unmarked) [Compound 11, N-[2-[methyl(7H-pyrrolo[2,3-d]pyrimidin-4-yl)amino]spiro[3.3]heptan-6-yl]benzenesulfonamide] | 11 | 81 | – | – | 95
23 | CNS(=O)(=O)C1CC2(CC(N(C)c3ncnc4[nH]ccc34)C2)C1 (centres unmarked) [Compound 1, N-methyl-6-[methyl(7H-pyrrolo[2,3-d]pyrimidin-4-yl)amino]spiro[3.3]heptane-2-sulfonamide] | 71 | 92 | – | – | 96

Source: patent US10744136B2, “Sulfonamide derivatives as JAK inhibitors” (Avista Pharma Solutions, Inc., priority 2018, dated 2020)
